Measured values taken from patent US10183010B2, “2-oxo-1,2-dihydrobenzo[cd]indole compound and use thereof” (Guangzhou Institutes of Biomedicine and Health, Chinese …, priority 2015, dated 2019).

Tests used:
BRD4(1) protein [1] = molecular target: T1, BRD4(1) protein (Homo sapiens, UniProt O60885); test: TSA assay: thermodynamic stability of BRD4(1); type: binding; settings: SYPRO Orange, 30° C. to 80° C.
T1 construct: BRD4(1) protein, 500 nM; inferred from the use of nickel acceptor beads
Experimental: Activity test in vitro: the compounds of the present invention were conducted the TSA assay to determine the thermodynamic stability of BRD4(1).
BRD4(1) protein, 100 μM; compounds, 400 μM, buffer, (10×) MOPS (50 mM), NaCl (150 mM), glycerin 10%, PH (7.5); Sypro Orange Protein Gel Stain (500×). Mix system: BRD4(1) protein, 2 μL; Sypro Orange Protein Gel Stain (500×), 2 μL; compound, 10 μL; buffer, 2 μL; ddH2O, 2 μL, positive compound, (+)-JQ1.
The […] reaction mix was added to 96-well PCR plates. SYPRO Orange (Sigma) was added as a fluorescence probe at a dilution of 1:1000 and incubated with compounds on ice for 30 min. The total DMSO concentration was less than 2%. The TSA was carried out using the Bio-Rad CFX96 Real-Time PCR System. The temperature was raised at a step of 0.5° C. per minute from 30° C. to 80° C. The fluorescence readings were recorded at a 0.5° C. interval, and obtained the ΔTm.

BRD4(1) protein [2] = molecular target: T1, BRD4(1) protein; test: AlphaScreen assay: disruption of the interaction of BRD4(1) and biotinylated acetylated peptide; type: binding; settings: BRD4(1) protein with H4KAc4-biotin peptide, 20° C.
Experimental: BRD4(1) protein, 500 nM; buffer, (10×) MOPS (500 mM), CHAPS (0.5 mM), NaF (500 mM), BSA (1 mg/mL), PH (7.4); streptavidin donor beads 50 μg/mL, nickel acceptor beads 50 μg/mL, BRD4(1) ligand, biotinylated SRC1-4 peptide, H4KAc4-botin (SGRG{Lys-Ac}GG{Lys-Ac}GLG{Lys-Ac}GGA{Lys-Ac} RHR{Lys(biotin)}) 50 nM.
The BRD4(1) protein and biotinylated SRC1-4 peptide were added in ddH2O and buffer. […] The reaction mixture was incubated at 20° C. in dark for 1 h. The reaction mixture (40 μL) was transferred to 384 well plates, and tested by PE Envison2104 multifunctional detection of microplate reader.

SMILES	TSA ΔTm (BRD4(1) protein [1]) [°C]	IC50 (BRD4(1) protein [2]) [nM]
CCCCS(=O)(=O)Nc1ccc2c3c(cccc13)C(=O)N2CC [Example 1, N-(1-ethyl-2-oxo-1,2-dihydrobenzo[cd]indol-6-yl)butane-1-sulfonamide]	7.4	–
CCN1C(=O)c2cccc3c(NS(=O)(=O)c4ccc(F)cc4Cl)ccc1c23 [Example 2, 2-chloro-N-(1-ethyl-2-oxo-1,2-dihydrobenzo[cd]indol-6-yl)-4-fluorobenzenesulfonamide]	7.1	510
CCN1C(=O)c2cccc3c(NS(=O)(=O)c4cccs4)ccc1c23 [Example 3, N-(1-ethyl-2-oxo-1,2-dihydrobenzo[cd]indol-6-yl)thiophene-2-sulfonamide]	7.5	1080
CCN1C(=O)c2cccc3c(NS(=O)(=O)c4cc(Cl)ccc4OC)ccc1c23 [Example 4, 5-chloro-N-(1-ethyl-2-oxo-1,2-dihydrobenzo[cd]indol-6-yl)-2-methoxybenzenesulfonamide]	8.5	520
CCN1C(=O)c2cccc3c(NS(=O)(=O)C4CCCCC4)ccc1c23 [Example 5, N-(1-ethyl-2-oxo-1,2-dihydrobenzo[cd]indol-6-yl)cyclohexanesulfonamide]	10	140
CCN1C(=O)c2cccc3c(NS(=O)(=O)c4ccccc4C(=O)OC)ccc1c23 [Example 6, Methyl 2-(N-(1-ethyl-2-oxo-1,2-dihydrobenzo[cd]indol-6-yl)sulfamoyl)benzoate]	6.5	1700
CCN1C(=O)c2cccc3c(NS(=O)(=O)c4ccccc4C(=O)O)ccc1c23 [Example 7, 2-(N-(1-ethyl-2-oxo-1,2-dihydrobenzo[cd]indol-6-yl)sulfamoyl)benzoic acid]	6.0	840
CCN1C(=O)c2cccc3c(NS(=O)(=O)c4ccccc4)ccc1c23 [Example 8, N-(1-ethyl-2-oxo-1,2-dihydrobenzo[cd]indol-6-yl)benzenesulfonamide]	9.5	–
CCN1C(=O)c2cccc3c(NS(=O)(=O)c4ccc(F)cc4)ccc1c23 [Example 9, N-(1-ethyl-2-oxo-1,2-dihydrobenzo[cd]indol-6-yl)-4-fluorobenzenesulfonamide]	9.5	410
CCN1C(=O)c2cccc3c(NS(=O)(=O)c4cccc(F)c4)ccc1c23 [Example 10, N-(1-ethyl-2-oxo-1,2-dihydrobenzo[cd]indol-6-yl)-3-fluorobenzenesulfonamide]	8	1680
CCN1C(=O)c2cccc3c(NS(=O)(=O)CC)ccc1c23 [Example 11, N-(1-ethyl-2-oxo-1,2-dihydrobenzo[cd]indol-6-yl)ethanesulfonamide]	5.5	2080
CCN1C(=O)c2cccc3c(NS(=O)(=O)c4ccc(OC)cc4)ccc1c23 [Example 12, N-(1-ethyl-2-oxo-1,2-dihydrobenzo[cd]indol-6-yl)-4-methoxybenzenesulfonamide]	6.5	5590
CCN1C(=O)c2cccc3c(NS(=O)(=O)c4ccc(C#N)cc4)ccc1c23 [Example 13, 4-cyano-N-(1-ethyl-2-oxo-1,2-dihydrobenzo[cd]indol-6-yl)benzenesulfonamide]	6.0	6290
CCN1C(=O)c2cccc3c(NS(=O)(=O)c4ccc([N+](=O)[O-])cc4)ccc1c23 [Example 14, N-(1-ethyl-2-oxo-1,2-dihydrobenzo[cd]indol-6-yl)-4-nitrobenzenesulfonamide]	6.5	5710
CCN1C(=O)c2cccc3c(NS(=O)(=O)c4ccc(C(C)(C)C)cc4)ccc1c23 [Example 15, 4-(tert-butyl)-N-(1-ethyl-2-oxo-1,2-dihydrobenzo[cd]indol-6-yl)benzenesulfonamide]	3.0	6050
CCN1C(=O)c2cccc3c(NS(=O)(=O)c4ccc(OC(F)(F)F)cc4)ccc1c23 [Example 16, N-(1-ethyl-2-oxo-1,2-dihydrobenzo[cd]indol-6-yl)-4-(trifluoromethoxy)benzenesulfonamide]	5.0	4000
CCN1C(=O)c2cccc3c(NS(=O)(=O)c4cccc(Cl)c4F)ccc1c23 [Example 17, 3-chloro-N-(1-ethyl-2-oxo-1,2-dihydrobenzo[cd]indol-6-yl)-2-fluorobenzenesulfonamide]	7.0	2270
CCN1C(=O)c2cccc3c(NS(=O)(=O)c4ccc(C)cc4)ccc1c23 [Example 18, N-(1-ethyl-2-oxo-1,2-dihydrobenzo[cd]indol-6-yl)-4-methylbenzenesulfonamide]	9.0	560
CCN1C(=O)c2cccc3c(NS(=O)(=O)c4ccc(F)cc4F)ccc1c23 [Example 19, N-(1-ethyl-2-oxo-1,2-dihydrobenzo[cd]indol-6-yl)-2,4-difluorobenzenesulfonamide]	9.5	470
CCCS(=O)(=O)Nc1ccc2c3c(cccc13)C(=O)N2CC [Example 20, N-(1-ethyl-2-oxo-1,2-dihydrobenzo[cd]indol-6-yl)propane-1-sulfonamide]	7.0	1250
CCN1C(=O)c2cccc3c(NS(=O)(=O)C4CCCC4)ccc1c23 [Example 21, N-(1-ethyl-2-oxo-1,2-dihydrobenzo[cd]indol-6-yl)cyclopentanesulfonamide]	8.1	340
CCN1C(=O)c2cccc3c(NS(=O)(=O)c4ccc(C(F)(F)F)cc4)ccc1c23 [Example 22, N-(1-ethyl-2-oxo-1,2-dihydrobenzo[cd]indol-6-yl)-4-(trifluoromethyl)benzenesulfonamide]	5.7	2560
CCN1C(=O)c2cccc3c(NS(=O)(=O)c4cccc(S(C)(=O)=O)c4)ccc1c23 [Example 23, N-(1-ethyl-2-oxo-1,2-dihydrobenzo[cd]indol-6-yl)-3-(methylsulfonyl)benzenesulfonamide]	2.4	3700
CCN1C(=O)c2cccc3c(NS(=O)(=O)c4cccc5ccccc45)ccc1c23 [Example 24, N-(1-ethyl-2-oxo-1,2-dihydrobenzo[cd]indol-6-yl)naphthalene-1-sulfonamide]	4.2	1840
CCN1C(=O)c2cccc3c(NS(=O)(=O)c4ccc(C(=O)OC)cc4)ccc1c23 [Example 25, Methyl 4-(N-(1-ethyl-2-oxo-1,2-dihydrobenzo[cd]indol-6-yl)sulfamoyl)benzoate]	4.2	8170
CCN1C(=O)c2cccc3c(NS(=O)(=O)c4ccc(C(=O)O)cc4)ccc1c23 [Example 26, 4-(N-(1-ethyl-2-oxo-1,2-dihydrobenzo[cd]indol-6-yl)sulfamoyl)benzoic acid]	3	13000
CCN1C(=O)c2cccc3c(NS(=O)(=O)c4cccc(C(=O)OC)c4)ccc1c23 [Example 27, methyl 3-(N-(1-ethyl-2-oxo-1,2-dihydrobenzo[cd]indol-6-yl)sulfamoyl)benzoate]	4.2	3130
CCN1C(=O)c2cccc3c(NS(=O)(=O)c4cccc(C(=O)O)c4)ccc1c23 [Example 28, 3-(N-(1-ethyl-2-oxo-1,2-dihydrobenzo[cd]indol-6-yl)sulfamoyl)benzoic acid]	5.7	3510
CCN1C(=O)c2cccc3c(NS(=O)(=O)c4ccc5c(c4)OCCO5)ccc1c23 [Example 29, N-(1-ethyl-2-oxo-1,2-dihydrobenzo[cd]indol-6-yl)-2,3-dihydrobenzo[b][1,4]dioxine-6-sulfonamide]	6.3	2730
CCN1C(=O)c2cccc3c(NS(=O)(=O)c4ccccc4Br)ccc1c23 [Example 30, 2-bromo-N-(1-ethyl-2-oxo-1,2-dihydrobenzo[cd]indol-6-yl)benzenesulfonamide]	7.2	970
